Among the test systems are SK-MEL-5 melanoma; T-47D breast; HL-60(TB) leukemia; OVCAR-4 ovarian; OVCAR-5 ovarian; RXF 393 renal; HOP-92 NSCLC; NCI-H23 lung; BT-549 breast; SK-MEL-2 melanoma.
Test in all cases: growth of human tumour cells (NCI), 48 h

The structures appear in SMILES notation.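 Method: 48-hour compound exposure of cells in 96-well plates, five concentrations, linear interpolation of endpoints. GI50: concentration for 50% inhibition of growth. At the TGI there is no net growth.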 Bounds are passed on as bounds.

Take `NCCCCN(Cc1nc2ccccc2[nH]1)[C@H]1CCCc2cccnc21`: the GI50 was 14500 nM with SK-MEL-5 melanoma; 21400 nM with T-47D breast; 5340 nM with HL-60(TB) leukemia; 10600 nM in the assay on OVCAR-4 ovarian; 11800 nM in the assay with OVCAR-5 ovarian; 13500 nM in the assay with RXF 393 renal. Also, the GI50 in the assay on HOP-92 NSCLC was 2120 nM; with NCI-H23 lung, 20400 nM; in the assay with BT-549 breast, 22800 nM; in the assay with SK-MEL-2 melanoma, 16700 nM. In addition, the TGI is 27800 nM with SK-MEL-5 melanoma; greater than 100000 nM in the assay on T-47D breast; 26700 nM in the assay with HL-60(TB) leukemia; greater than 82700 nM in the assay with OVCAR-4 ovarian; greater than 100000 nM in the assay on OVCAR-5 ovarian; 66800 nM in the assay on RXF 393 renal. Also, the TGI in the assay on HOP-92 NSCLC was 27100 nM; in the assay with NCI-H23 lung, greater than 100000 nM; with BT-549 breast, greater than 100000 nM; in the assay on SK-MEL-2 melanoma, 45100 nM.

Consider `COc1ccc(/C=C/C(=O)c2cc3c(N)c(C(=O)Nc4ccccc4)sc3nc2C)cc1`, for which the GI50 with SK-MEL-5 melanoma was 136 nM; in the assay on T-47D breast, 330 nM; in the assay on HL-60(TB) leukemia, 119 nM; in the assay on OVCAR-4 ovarian it was 472 nM; with OVCAR-5 ovarian, 385 nM; in the assay with RXF 393 renal, 114 nM. Further, the GI50 in the assay with HOP-92 NSCLC was 1170 nM; in the assay on NCI-H23 lung, 227 nM; in the assay on BT-549 breast it was 797 nM; in the assay with SK-MEL-2 melanoma, 422 nM. The TGI in the assay with SK-MEL-5 melanoma was 862 nM; in the assay on T-47D breast, greater than 50000 nM; in the assay on HL-60(TB) leukemia, 342 nM; in the assay with OVCAR-4 ovarian, greater than 50000 nM; in the assay with OVCAR-5 ovarian, greater than 50000 nM; in the assay with RXF 393 renal it was 2310 nM. The TGI in the assay with HOP-92 NSCLC is 14000 nM; in the assay with BT-549 breast it was greater than 50000 nM; with SK-MEL-2 melanoma, greater than 50000 nM.

Consider `C=C1C(=O)O[C@H]2[C@H]1CC/C(CNS(=O)(=O)c1cccc3ccccc13)=C\CC[C@@]1(C)O[C@@H]21`, for which the GI50 was 1950 nM in the assay on SK-MEL-5 melanoma; 1960 nM in the assay on T-47D breast; 1210 nM in the assay with HL-60(TB) leukemia; 1720 nM with OVCAR-4 ovarian; 2840 nM in the assay on OVCAR-5 ovarian; 1260 nM in the assay with RXF 393 renal. The GI50 is 1110 nM in the assay on HOP-92 NSCLC, 2480 nM in the assay with NCI-H23 lung, 1560 nM with BT-549 breast and 5180 nM in the assay with SK-MEL-2 melanoma. Also, the TGI with SK-MEL-5 melanoma was found to be 3980 nM; with T-47D breast, 6510 nM; in the assay on HL-60(TB) leukemia, 3760 nM; in the assay with OVCAR-4 ovarian, 3680 nM; in the assay on OVCAR-5 ovarian, 8440 nM; in the assay with RXF 393 renal it was 2870 nM. Besides, the TGI in the assay with HOP-92 NSCLC came to 2800 nM; with NCI-H23 lung it was 9120 nM; in the assay with BT-549 breast it was 3100 nM; in the assay on SK-MEL-2 melanoma, 18300 nM.

On to `OC(CNC1CCCC1)Cn1c2ccccc2c2ccccc21` (stereo unspecified), for which the GI50 in the assay with SK-MEL-5 melanoma is greater than 100000 nM; with T-47D breast, 33900 nM; with HL-60(TB) leukemia, greater than 100000 nM; in the assay with OVCAR-4 ovarian, greater than 100000 nM; in the assay on OVCAR-5 ovarian it was 35900 nM; in the assay on RXF 393 renal, 16300 nM. The GI50 with HOP-92 NSCLC was 14900 nM; in the assay with NCI-H23 lung it was 28400 nM; in the assay on BT-549 breast it was 25100 nM; in the assay with SK-MEL-2 melanoma, 25100 nM. For the same compound, the TGI in the assay on SK-MEL-5 melanoma is greater than 100000 nM; in the assay on T-47D breast, greater than 100000 nM; with HL-60(TB) leukemia it was greater than 100000 nM; in the assay on OVCAR-4 ovarian it was greater than 100000 nM; in the assay on OVCAR-5 ovarian, greater than 100000 nM; with RXF 393 renal, 52500 nM. Besides, the TGI was 34700 nM with HOP-92 NSCLC, 83700 nM in the assay with NCI-H23 lung, greater than 100000 nM in the assay with BT-549 breast and 68600 nM in the assay with SK-MEL-2 melanoma.

For the compound `COC(=O)[C@@]1(O)C[C@H]2O[C@]1(C)n1c3ccccc3c3c4c(c5c6ccccc6n2c5c31)C(=O)NC4`, the GI50 in the assay on T-47D breast is 80.5 nM; in the assay on HL-60(TB) leukemia, 868 nM; in the assay on OVCAR-4 ovarian, 1240 nM; in the assay with OVCAR-5 ovarian, 210 nM; in the assay with RXF 393 renal it was 159 nM; with HOP-92 NSCLC it was 188 nM. Besides, the GI50 was 212 nM with NCI-H23 lung, 295 nM with BT-549 breast and 47.6 nM in the assay on SK-MEL-2 melanoma. The TGI with T-47D breast came out at 2050 nM; in the assay on OVCAR-4 ovarian, 2760 nM; in the assay with OVCAR-5 ovarian, 8120 nM; with RXF 393 renal, 1490 nM; with HOP-92 NSCLC, 880 nM; with NCI-H23 lung, 2360 nM. Further, the TGI in the assay with BT-549 breast was 1910 nM; with SK-MEL-2 melanoma, 1610 nM.

On to `C/C=C/C=C\C1OC(O)([C@H](CC)C(=O)NC/C=C/C=C(\C)[C@H](OC)C(C)C2OC(\C=C/C=C/C=C(\C)C(=O)c3c(O)ccn(C)c3=O)[C@H](O)[C@@H]2O)C(O)C(O)C1(C)C` (stereo partly specified), for which the TGI in the assay on SK-MEL-5 melanoma, in the assay on T-47D breast, with HL-60(TB) leukemia, in the assay with OVCAR-4 ovarian, with OVCAR-5 ovarian and in the assay on RXF 393 renal was greater than 100000 nM throughout. In addition, the TGI in the assay on HOP-92 NSCLC, with NCI-H23 lung, with BT-549 breast and in the assay on SK-MEL-2 melanoma was greater than 100000 nM in each case.

`O=C1/C(=C/c2ccc(Cl)cc2)COc2ccc(O)c(O)c21`: the GI50 in the assay with SK-MEL-5 melanoma was 1510 nM; with T-47D breast, 1200 nM; in the assay with HL-60(TB) leukemia, 280 nM; in the assay on OVCAR-4 ovarian, 1330 nM; with OVCAR-5 ovarian, 1600 nM; with RXF 393 renal, 1340 nM. In addition, the GI50 in the assay with HOP-92 NSCLC is 2010 nM; with NCI-H23 lung, 1710 nM; in the assay on BT-549 breast it was 1770 nM; with SK-MEL-2 melanoma it was 2510 nM. Moreover, the TGI in the assay with SK-MEL-5 melanoma worked out at 2900 nM; in the assay on T-47D breast, 2980 nM; in the assay on HL-60(TB) leukemia, 827 nM; with OVCAR-4 ovarian, 2710 nM; in the assay on OVCAR-5 ovarian, 3210 nM; with RXF 393 renal it was 2750 nM. Also, the TGI in the assay on HOP-92 NSCLC worked out at 8770 nM; in the assay on NCI-H23 lung it was 4090 nM; in the assay on BT-549 breast it was 4040 nM; in the assay with SK-MEL-2 melanoma, 7630 nM.

Consider `COc1cccc2c(=O)c3c(sc12)c(NCCN(C)C)nc1ccccc13`, for which the GI50 in the assay on SK-MEL-5 melanoma was 1710 nM; in the assay with T-47D breast it was 1650 nM; in the assay with HL-60(TB) leukemia it was 1640 nM; in the assay with OVCAR-4 ovarian, 1570 nM; in the assay with OVCAR-5 ovarian, 1650 nM; with RXF 393 renal, 1290 nM. For the same compound, the GI50 with HOP-92 NSCLC was 1030 nM; with NCI-H23 lung, 1510 nM; in the assay with BT-549 breast it was 2310 nM; in the assay on SK-MEL-2 melanoma, 1840 nM. The TGI in the assay on SK-MEL-5 melanoma was found to be 3170 nM; with T-47D breast, 3980 nM; with HL-60(TB) leukemia, 3420 nM; in the assay on OVCAR-4 ovarian, 3680 nM; in the assay with OVCAR-5 ovarian, 3300 nM; in the assay with RXF 393 renal, 2650 nM. Also, the TGI in the assay with HOP-92 NSCLC was 3530 nM; in the assay on NCI-H23 lung, 3160 nM; in the assay with BT-549 breast, 10100 nM; with SK-MEL-2 melanoma, 3820 nM.

For the origin of these results see PubChem BioAssay (NCI).
